Patent US12077503B2, “Substituted cyclic amides and their use as herbicides” (FMC CORPORATION, priority 2015, dated 2024)

Key:
Assay type in all cases: in vivo
[1] = system: giant foxtail (Setaria faberi); assay: Test G Pre-Emergence Protocol; details: Setaria faberi, pre-emergence, 312 h, evaluated after 13 days; for pest or weed control at 15.625 g/ha: 15.625 g ai/ha; for pest or weed control at 15.625 g/ha / pest or weed control at 250 g/ha: read-out: Foxtail, Giant damage rating (100=total damage to plant; 0=no damage to plant); for pest or weed control at 62.5 g/ha: 62.5 g ai/ha, 100=total damage to plant, 0=no damage to plant, read-out: plant damage rating, Foxtail, Giant; for pest or weed control at 250 g/ha: 250 g ai/ha
Protocol: (§1) Seeds of corn (Zea mays), giant foxtail (Setaria faberi), barnyardgrass (Echinochloa crus-galli), ivy-leaved morning glory (Ipomoea hederacea), redroot pigweed (Amaranthus retroflexus) and velvetleaf (Abutilon theophrasti) were sown in standard soil in pots. After cultivation for one day under controlled conditions in a glasshouse (at 24/16° C., day/night; 14 hours light; 65% humidity), the plants were sprayed with an aqueous spray solution derived from the formulation of the technical active ingredient in acetone/water (50:50) solution containing 0.5% Tween 20 (polyoxyethylene sorbitan monolaurate, CAS RN 9005-64-5) to give a final dose of 15.625, 62.5 or 250 g/ha of test compound.
(§2) The test plants were then grown on under controlled conditions in a glasshouse (at 24/16° C., day/night; 14 hours light; 65% humidity) and watered twice daily. After 13 days the test was evaluated (100=total damage to plant; 0=no damage to plant). A dash (-) means no test result.

[2] = system: barnyardgrass (Echinochloa crus-galli); assay: Test G Pre-Emergence Protocol; details: Echinochloa crus-galli, pre-emergence, 312 h, evaluated after 13 days; for pest or weed control at 15.625 g/ha: 15.625 g ai/ha, read-out: Barnyard grass damage rating (100=total damage to plant; 0=no damage to plant); for pest or weed control at 62.5 g/ha: 62.5 g ai/ha, 100=total damage to plant, 0=no damage to plant, read-out: plant damage rating, Barnyardgrass; for pest or weed control at 250 g/ha: 250 g ai/ha, read-out: Barnyardgrass damage rating (100=total damage to plant; 0=no damage to plant)
Protocol: as §1, §2

[3] = system: redroot pigweed (Amaranthus retroflexus); assay: Test G Pre-Emergence Protocol; details: Amaranthus retroflexus, pre-emergence, 312 h, evaluated after 13 days; for pest or weed control at 15.625 g/ha: 15.625 g ai/ha; for pest or weed control at 15.625 g/ha / pest or weed control at 250 g/ha: read-out: Pigweed, Redroot damage rating (100=total damage to plant; 0=no damage to plant); for pest or weed control at 62.5 g/ha: 62.5 g ai/ha, 100=total damage to plant, 0=no damage to plant, read-out: plant damage rating, Pigweed, Redroot; for pest or weed control at 250 g/ha: 250 g ai/ha
Protocol: as §1, §2

[4] = system: corn (Zea mays); assay: Test G Pre-Emergence Protocol; details: Zea mays, pre-emergence, 312 h, evaluated after 13 days; for plant injury at 15.625 g/ha: 15.625 g ai/ha; for plant injury at 15.625 g/ha / plant injury at 250 g/ha: read-out: Corn damage rating (100=total damage to plant; 0=no damage to plant); for plant injury at 62.5 g/ha: 62.5 g ai/ha, 100=total damage to plant, 0=no damage to plant, read-out: plant damage rating, Corn; for plant injury at 250 g/ha: 250 g ai/ha
Protocol: as §1, §2

[5] = system: velvetleaf (Abutilon theophrasti); assay: Test G Pre-Emergence Protocol; details: Abutilon theophrasti, pre-emergence, 312 h, evaluated after 13 days; for pest or weed control at 15.625 g/ha: 15.625 g ai/ha; for pest or weed control at 15.625 g/ha / pest or weed control at 250 g/ha: read-out: Velvetleaf damage rating (100=total damage to plant; 0=no damage to plant); for pest or weed control at 62.5 g/ha: 62.5 g ai/ha, 100=total damage to plant, 0=no damage to plant, read-out: plant damage rating, Velvetleaf; for pest or weed control at 250 g/ha: 250 g ai/ha
Protocol: as §1, §2

[6] = system: ivy-leaved morning glory (Ipomoea hederacea); assay: Test G Pre-Emergence Protocol; details: Ipomoea, pre-emergence, 312 h, evaluated after 13 days; for pest or weed control at 15.625 g/ha: 15.625 g ai/ha, read-out: Morning-glory, Ivy-leaved damage rating (100=total damage to plant; 0=no damage to plant); for pest or weed control at 62.5 g/ha: 62.5 g ai/ha, 100=total damage to plant, 0=no damage to plant, read-out: plant damage rating, Morningglory, Ivy-leaved; for pest or weed control at 250 g/ha: 250 g ai/ha, read-out: Morningglory, Ivy-leaved damage rating (100=total damage to plant; 0=no damage to plant)
Protocol: as §1, §2

[7] = system: giant foxtail (Setaria faberi); assay: Test G Post-Emergence Protocol; details: Setaria faberi, post-emergence, 312 h; for pest or weed control at 15.625 g/ha: 15.625 g ai/ha, evaluated after 13 days (100=total damage to plant; 0=no damage to plant), read-out: Foxtail, Giant damage rating; for pest or weed control at 62.5 g/ha: 62.5 g ai/ha, read-out: Foxtail, Giant damage rating (100=total damage to plant; 0=no damage to plant); for pest or weed control at 62.5 g/ha / pest or weed control at 250 g/ha: evaluated after 13 days; for pest or weed control at 250 g/ha: 250 g ai/ha, read-out: damage to plant, Foxtail, Giant (100=total damage to plant; 0=no damage to plant)
Protocol: as §1, with “8 days” for “one day”
as §2

[8] = system: barnyardgrass (Echinochloa crus-galli); assay: Test G Post-Emergence Protocol; details: Echinochloa crus-galli, post-emergence, 312 h; for pest or weed control at 15.625 g/ha: 15.625 g ai/ha, evaluated after 13 days (100=total damage to plant; 0=no damage to plant), read-out: Barnyardgrass damage rating; for pest or weed control at 62.5 g/ha: 62.5 g ai/ha, read-out: Barnyardgrass damage rating (100=total damage to plant; 0=no damage to plant); for pest or weed control at 62.5 g/ha / pest or weed control at 250 g/ha: evaluated after 13 days; for pest or weed control at 250 g/ha: 250 g ai/ha, read-out: damage to plant, Barnyardgrass (100=total damage to plant; 0=no damage to plant)
Protocol: as §1, with “8 days” for “one day”
as §2

[9] = system: redroot pigweed (Amaranthus retroflexus); assay: Test G Post-Emergence Protocol; details: Amaranthus retroflexus, post-emergence, 312 h; for pest or weed control at 15.625 g/ha: 15.625 g ai/ha, evaluated after 13 days (100=total damage to plant; 0=no damage to plant), read-out: Pigweed, Redroot damage rating; for pest or weed control at 62.5 g/ha: 62.5 g ai/ha, read-out: Pigweed, Redroot damage rating (100=total damage to plant; 0=no damage to plant); for pest or weed control at 62.5 g/ha / pest or weed control at 250 g/ha: evaluated after 13 days; for pest or weed control at 250 g/ha: 250 g ai/ha, read-out: damage to plant, Pigweed, Redroot (100=total damage to plant; 0=no damage to plant)
Protocol: as §1, with “8 days” for “one day”
as §2

[10] = system: corn (Zea mays); assay: Test G Post-Emergence Protocol; details: Zea mays, post-emergence, 312 h; for plant injury at 15.625 g/ha: 15.625 g ai/ha, evaluated after 13 days (100=total damage to plant; 0=no damage to plant), read-out: Corn damage rating; for plant injury at 62.5 g/ha: 62.5 g ai/ha, read-out: Corn damage rating (100=total damage to plant; 0=no damage to plant); for plant injury at 62.5 g/ha / plant injury at 250 g/ha: evaluated after 13 days; for plant injury at 250 g/ha: 250 g ai/ha, read-out: damage to plant, Corn (100=total damage to plant; 0=no damage to plant)
Protocol: as §1, with “8 days” for “one day”
as §2

[11] = system: velvetleaf (Abutilon theophrasti); assay: Test G Post-Emergence Protocol; details: Abutilon theophrasti, post-emergence, 312 h; for pest or weed control at 15.625 g/ha: 15.625 g ai/ha, evaluated after 13 days (100=total damage to plant; 0=no damage to plant), read-out: Velvetleaf damage rating; for pest or weed control at 62.5 g/ha: 62.5 g ai/ha, read-out: Velvetleaf damage rating (100=total damage to plant; 0=no damage to plant); for pest or weed control at 62.5 g/ha / pest or weed control at 250 g/ha: evaluated after 13 days; for pest or weed control at 250 g/ha: 250 g ai/ha, read-out: damage to plant, Velvetleaf (100=total damage to plant; 0=no damage to plant)
Protocol: as §1, with “8 days” for “one day”
as §2

[12] = system: ivy-leaved morning glory (Ipomoea hederacea); assay: Test G Post-Emergence Protocol; details: Ipomoea, post-emergence, 312 h; for pest or weed control at 15.625 g/ha: 15.625 g ai/ha, evaluated after 13 days (100=total damage to plant; 0=no damage to plant), read-out: Morningglory, Ivy-leaved damage rating; for pest or weed control at 62.5 g/ha: 62.5 g ai/ha, read-out: Morningglory, Ivy-leaved damage rating (100=total damage to plant; 0=no damage to plant); for pest or weed control at 62.5 g/ha / pest or weed control at 250 g/ha: evaluated after 13 days; for pest or weed control at 250 g/ha: 250 g ai/ha, read-out: damage to plant, Morningglory, Ivy-leaved (100=total damage to plant; 0=no damage to plant)
Protocol: as §1, with “8 days” for “one day”
as §2

Cc1cccc(NC(=O)[C@H]2C(=O)N(C)C[C@@H]2c2ccc(C(F)(F)F)cc2)n1 (racemic) [Compound 1429]
20%: pest or weed control at 250 g/ha [8] | pest or weed control at 250 g/ha [12]
50%: pest or weed control at 250 g/ha [5]
70%: pest or weed control at 62.5 g/ha [1] | pest or weed control at 250 g/ha [2]
10%: pest or weed control at 62.5 g/ha [8] | plant injury at 15.625 g/ha [10] | plant injury at 250 g/ha [10] | pest or weed control at 62.5 g/ha [12]
0%: pest or weed control at 15.625 g/ha [1] | pest or weed control at 15.625 g/ha [2] | pest or weed control at 15.625 g/ha [3] | pest or weed control at 62.5 g/ha [3] | pest or weed control at 250 g/ha [3] | plant injury at 15.625 g/ha [4] | plant injury at 62.5 g/ha [4] | plant injury at 250 g/ha [4] | pest or weed control at 15.625 g/ha [5] | pest or weed control at 62.5 g/ha [5] | pest or weed control at 15.625 g/ha [6] | pest or weed control at 62.5 g/ha [6] | pest or weed control at 250 g/ha [6] | pest or weed control at 15.625 g/ha [7] | pest or weed control at 15.625 g/ha [8] | pest or weed control at 15.625 g/ha [9] | pest or weed control at 62.5 g/ha [9] | plant injury at 62.5 g/ha [10] | pest or weed control at 15.625 g/ha [11] | pest or weed control at 62.5 g/ha [11] | pest or weed control at 15.625 g/ha [12]
40%: pest or weed control at 62.5 g/ha [2] | pest or weed control at 250 g/ha [7]
80%: pest or weed control at 250 g/ha [1] | pest or weed control at 250 g/ha [9]
30%: pest or weed control at 62.5 g/ha [7] | pest or weed control at 250 g/ha [11]

CN1C[C@@H](c2ccc(C(F)(F)F)cc2)[C@H](C(=O)Nc2cc(F)c(F)c(F)c2F)C1=O (racemic) [Compound 1625]
50%: pest or weed control at 62.5 g/ha [7] | pest or weed control at 250 g/ha [9]
0%: pest or weed control at 15.625 g/ha [1] | pest or weed control at 15.625 g/ha [2] | pest or weed control at 62.5 g/ha [2] | pest or weed control at 15.625 g/ha [3] | plant injury at 15.625 g/ha [4] | plant injury at 62.5 g/ha [4] | plant injury at 250 g/ha [4] | pest or weed control at 15.625 g/ha [5] | pest or weed control at 62.5 g/ha [5] | pest or weed control at 15.625 g/ha [6] | pest or weed control at 15.625 g/ha [7] | pest or weed control at 15.625 g/ha [8] | pest or weed control at 15.625 g/ha [9] | plant injury at 15.625 g/ha [10] | plant injury at 62.5 g/ha [10] | pest or weed control at 15.625 g/ha [11] | pest or weed control at 15.625 g/ha [12] | pest or weed control at 62.5 g/ha [12]
30%: pest or weed control at 62.5 g/ha [8] | pest or weed control at 62.5 g/ha [9]
10%: pest or weed control at 62.5 g/ha [1] | pest or weed control at 250 g/ha [3] | pest or weed control at 250 g/ha [5] | pest or weed control at 62.5 g/ha [6] | pest or weed control at 250 g/ha [6] | plant injury at 250 g/ha [10] | pest or weed control at 62.5 g/ha [11]
20%: pest or weed control at 62.5 g/ha [3] | pest or weed control at 250 g/ha [12]
80%: pest or weed control at 250 g/ha [1] | pest or weed control at 250 g/ha [7]
40%: pest or weed control at 250 g/ha [2] | pest or weed control at 250 g/ha [8] | pest or weed control at 250 g/ha [11]
